Laboratory results taken from PMC7367873, “Dissecting the sequence determinants for dephosphorylation by the catalytic subunits of phosphatases PP1 and PP2A” (Nature Communications, 2020).

Tests used:
GFP-14-3-3β = GFP-14-3-3β co-IP with LC-MS/MS, untreated GFP-14-3-3β versus GFP control (14-3-3 interactome); format: binding, human
Procedure: (§1) HeLa Kyoto cells expressing transiently transfected pEGFP(C1)-14-3-3β or pEGFP(C1) control plasmid, were incubated with 20 nM Calyculin A (# 9902 S, Cell Signaling Technology) for 12 min. Cells were washed twice on ice with cold PBS and after addition of 500 µL lysis buffer (100 mM NaCl, 10 mM Tris, 0.1% IGEPAL, 1 mM EDTA, 1 mM EGTA, 20 nM Calyculin A, 1x cOmplete Mini protease inhibitor cocktail (Sigma), 1 mM DTT, 1 mM MnCl2) cells were scraped from plates, lysed by 10 pushes through an injection needle (21 G, BD) and the insoluble fraction was pelleted by centrifugation (10 min, 10^4 rcf, 4 °C). Supernatants were then subjected to incubation with 1 µM recombinant phosphatase or buffer for 1 h at 30 °C. Next, we subjected samples to immunoprecipitation using α-GFP nanobodies covalently coupled to agarose beads (2 h, 4 °C, obtained from the EMBL PEPcore Core Facility). Beads were then washed three times with lysis buffer and samples were eluted in 1x LDS sample buffer (Thermo Fisher Scientific) by heating to 70 °C for 10 min.
(§2) The samples were then reduced with 25 mM dithiothreitol (10 min at 70 °C) and alkylated with 55 mM chloroacetamide (room temperature, 30 min, in the dark). Proteins were run on a precast 4–12% NuPAGE gel (ThermoFisher Scientific) for about 1 cm to concentrate the sample prior to in-gel tryptic digestion, which was performed according to the standard procedures. The peptides obtained were dried to completeness and resuspended in 12 µL of buffer A (0.1% FA), and 5 µL of sample were injected per MS measurement. The experiment was carried out in three independent replicates.
(§3) The samples were analyzed by LC-MS/MS on a Dionex Ultimate 3000 nano-HPLC coupled online to a Fusion Lumos Tribrid mass spectrometer (Thermo Fisher Scientific). Peptides were delivered to a trap column (75 µm × 2 cm, packed in-house with 5 µm C18 resin; Reprosil PUR AQ, Dr. Maisch) and washed using 0.1% FA at a flow rate of 5 µL/min for 10 min. Subsequently, peptides were transferred to an analytical column (75 µm × 45 cm, packed in-house with 3 µm C18 resin; Reprosil Gold) applying a flow rate of 300 nL/min and separated using a 60 min linear gradient from 4% to 32% LC solvent B (0.1% FA, 5% DMSO in ACN) in LC solvent A (0.1% FA in 5% DMSO). The eluate from the analytical column was sprayed via a stainless steel emitter (Thermo Fisher Scientific) at a source voltage of 2.1 kV into the mass spectrometer. The transfer capillary was heated to 275 °C. The Fusion Lumos was operated in positive ionization mode and data-dependent acquisition (DDA), automatically switching between MS1 and MS2 spectrum acquisition. Full scan MS1 spectra were recorded in the Orbitrap from 360 to 1300 m/z at a resolution of 60k (automatic gain control (AGC) target value of 4e5 charges, maximum injection time (maxIT) of 50 ms). Up to 20 peptide precursors were isolated (isolation window, 1.7 m/z; maximum injection time, 25 ms; and AGC value, 1e5), fragmented by high-energy collision-induced dissociation (HCD) using 30% normalized collision energy (NCE), and analyzed at a resolution of 15k in the Orbitrap. Precursor ions that were singly charged, unassigned, or with charge states >6+ were excluded. The dynamic exclusion duration of fragmented precursor ions was 20 s.
(§4) Peptide and protein identification and LFQ were performed using MaxQuant software (version 1.6.1.0)[64] by searching the data against all canonical protein sequences as annotated in the Swissprot reference database (human proteins only, 20193 entries, downloaded 22 March 2016, internally annotated with PFAM domains) using the embedded search engine Andromeda[65]. The MaxQuant search was performed using two variable modifications; oxidation of methionine and N-terminal protein acetylation. Carbamidomethylation on cysteines was specified as a fixed modification. Trypsin (Trypsin/P) was specified as the proteolytic enzyme with up to two allowed missed cleavage sites.

[1] = tested on: GFP-14-3-3β and its binding proteins; assay: GFP-14-3-3β co-IP with LC-MS/MS label-free quantification, untreated versus PP1c-treated; design: species or system human
Procedure: as §1, §2, §3, §4

[2] = pairwise comparison untreated GFP-14-3-3β vs GFP, student's t-test, 3 replicates each, LC-MS/MS label-free quantification
[3] = pairwise comparison PP1 vs untreated, student's t-test, 3 replicates each, LC-MS/MS label-free quantification
[4] = untreated vs GFP, LFQ intensities, replicates 1-3
[5] = PP1 vs untreated, LFQ intensities, replicates 1-3
[6] = log2 difference, pairwise comparison untreated vs GFP, label-free quantification, 3 replicates each
[7] = log2 difference, pairwise comparison PP1 vs untreated, label-free quantification, 3 replicates each
[8] = pairwise comparison untreated vs GFP
[9] = pairwise comparison PP1 vs untreated
[10] = untreated vs GFP, label-free quantification
[11] = PP1 vs untreated, label-free quantification
[12] = GFP-14-3-3β co-IP LC-MS/MS, untreated vs GFP, student's t-test, label-free quantification, 3 replicates each
[13] = GFP-14-3-3β co-IP LC-MS/MS, PP1 vs untreated, student's t-test, label-free quantification, 3 replicates each
[14] = untreated vs GFP, LFQ intensities, 3 replicates each
[15] = PP1 vs untreated, LFQ intensities, 3 replicates each

DNMBP
Difference (log2), untreated vs GFP (GFP-14-3-3β; [2]): 3.515 log2
Difference (log2), PP1 vs untreated [1, 3]: -4.455 log2

DOCK7
Difference (log2), untreated vs GFP (GFP-14-3-3β; [2]): 5.106 log2
Difference (log2), PP1 vs untreated [1, 3]: -5.0278 log2

DOCK11
Difference (log2), untreated vs GFP (GFP-14-3-3β; [4]): 2.579 log2
Difference (log2), PP1 vs untreated [1, 5]: -1.861 log2

DPYSL3;CRMP1
Difference (log2), untreated vs GFP (GFP-14-3-3β; [6]): -3.981
Difference (log2), PP1 vs untreated [1, 7]: 2.547

DSP
Difference (log2), untreated vs GFP (GFP-14-3-3β; [6]): -0.252
Difference (log2), PP1 vs untreated [1, 7]: 4.203

DTX3L
Difference (log2), untreated vs GFP (GFP-14-3-3β; [8]): 0.3421 log2
Difference (log2), PP1 vs untreated [1, 9]: -0.03751 log2

DYNC1H1
Difference (log2), untreated vs GFP (GFP-14-3-3β; [10]): 3.605 log2
Difference (log2), PP1 vs untreated [1, 11]: 0.7684 log2

DYNLL1
Difference (log2), untreated vs GFP (GFP-14-3-3β; [2]): 3.684 log2
Difference (log2), PP1 vs untreated [1, 3]: -2.451 log2

ECM29
Difference (log2), untreated vs GFP (GFP-14-3-3β; [12]): -0.4278 log2
Difference (log2), PP1 vs untreated [1, 13]: -0.2746 log2

EEF1G
Difference (log2), untreated vs GFP (GFP-14-3-3β; [14]): -0.3337 log2
Difference (log2), PP1 vs untreated [1, 15]: 0.3367 log2

EFTUD2
Difference (log2), untreated vs GFP (GFP-14-3-3β; [12]): 2.59 log2
Difference (log2), PP1 vs untreated [1, 13]: -0.7202 log2

EIF4G1
Difference (log2), untreated vs GFP (GFP-14-3-3β; [8]): 0.6525 log2
Difference (log2), PP1 vs untreated [1, 9]: 0.2022 log2

ELAVL1
Difference (log2), untreated vs GFP (GFP-14-3-3β; [14]): 3.578 log2
Difference (log2), PP1 vs untreated [1, 15]: 0.612 log2

EMC1
Difference (log2), untreated vs GFP (GFP-14-3-3β; [6]): -0.5374
Difference (log2), PP1 vs untreated [1, 7]: 1.575

EMD
Difference (log2), untreated vs GFP (GFP-14-3-3β; [10]): -1.504 log2
Difference (log2), PP1 vs untreated [1, 11]: 1.014 log2

EPPK1
Difference (log2), untreated vs GFP (GFP-14-3-3β; [8]): 0.5175 log2
Difference (log2), PP1 vs untreated [1, 9]: 0.1139 log2

EPRS
Difference (log2), untreated vs GFP (GFP-14-3-3β; [12]): -0.2032 log2
Difference (log2), PP1 vs untreated [1, 13]: -0.1517 log2

FAM98A
Difference (log2), untreated vs GFP (GFP-14-3-3β; [14]): 0.9941 log2
Difference (log2), PP1 vs untreated [1, 15]: 0.6235 log2

FASN
Difference (log2), untreated vs GFP (GFP-14-3-3β; [14]): 1.462 log2
Difference (log2), PP1 vs untreated [1, 15]: 0.3561 log2

FBXO22
Difference (log2), untreated vs GFP (GFP-14-3-3β; [2]): 0.4281 log2
Difference (log2), PP1 vs untreated [1, 3]: -4.621 log2

FLNA
Difference (log2), untreated vs GFP (GFP-14-3-3β; [2]): -0.8027 log2
Difference (log2), PP1 vs untreated [1, 3]: -2.217 log2

FRYL
Difference (log2), untreated vs GFP (GFP-14-3-3β; [2]): 5.1751 log2
Difference (log2), PP1 vs untreated [1, 3]: -4.747 log2

FXR1
Difference (log2), untreated vs GFP (GFP-14-3-3β; [6]): -1.238
Difference (log2), PP1 vs untreated [1, 7]: 2.4595

FXR2
Difference (log2), untreated vs GFP (GFP-14-3-3β; [6]): -0.343
Difference (log2), PP1 vs untreated [1, 7]: 2.11

FYN
Difference (log2), untreated vs GFP (GFP-14-3-3β; [10]): -1.633 log2
Difference (log2), PP1 vs untreated [1, 11]: 0.8257 log2

G3BP1
Difference (log2), untreated vs GFP (GFP-14-3-3β; [10]): -0.3554 log2
Difference (log2), PP1 vs untreated [1, 11]: 0.9288 log2

GAPDH
Difference (log2), untreated vs GFP (GFP-14-3-3β; [2]): 0.2696 log2
Difference (log2), PP1 vs untreated [1, 3]: -4.245 log2

GCN1L1
Difference (log2), untreated vs GFP (GFP-14-3-3β; [14]): 0.08 log2
Difference (log2), PP1 vs untreated [1, 15]: 0.3397 log2

GEMIN5
Difference (log2), untreated vs GFP (GFP-14-3-3β; [6]): -0.2087
Difference (log2), PP1 vs untreated [1, 7]: 1.609

GNG12
Difference (log2), untreated vs GFP (GFP-14-3-3β; [4]): -0.9148 log2
Difference (log2), PP1 vs untreated [1, 5]: -1.974 log2

H2AFY
Difference (log2), untreated vs GFP (GFP-14-3-3β; [4]): 1.914 log2
Difference (log2), PP1 vs untreated [1, 5]: -1.711 log2

HDAC2
Difference (log2), untreated vs GFP (GFP-14-3-3β; [8]): 0.5775 log2
Difference (log2), PP1 vs untreated [1, 9]: 0.1471 log2

HEATR1
Difference (log2), untreated vs GFP (GFP-14-3-3β; [4]): 3.268 log2
Difference (log2), PP1 vs untreated [1, 5]: -1.168 log2

HERC2
Difference (log2), untreated vs GFP (GFP-14-3-3β; [8]): -0.06655 log2
Difference (log2), PP1 vs untreated [1, 9]: 0.111 log2
